Reference: ChEMBL document CHEMBL1154169, “Activity and molecular modeling of a new small molecule active against NNRTI-resistant HIV-1 mutants” (Eur J Med Chem, 2009)

Tests used:
[1] = Cytotoxicity against human MT4 cells assessed as reduction of cell viability after 4 days by MTT assay; assay type: cell-based
[2] = system: Human immunodeficiency virus 1; test: Antiviral activity against NNRTI-resistant HIV1 N119 with reverse transcriptase Y181C mutant infected in human MT4 cells assessed as protection against virus-induced cytopathogenicity after 4 days by MTT assay; assay type: functional, organism-based; conditions: Human immunodeficiency virus 1, N119, MT4, 96 h
[3] = system: Human immunodeficiency virus 1; test: Antiviral activity against NNRTI-resistant HIV1 A17 with reverse transcriptase K103N, Y181C mutant infected in human MT4 cells assessed as protection against virus-induced cytopathogenicity after 4 days by MTT assay; assay type: functional, organism-based; conditions: Human immunodeficiency virus 1, A17, MT4, 96 h
[4] = system: Human immunodeficiency virus 1; test: Antiviral activity against HIV1 EFV with reverse transcriptase K103R, V179D, P225H mutant infected in human MT4 cells assessed as protection against virus-induced cytopathogenicity after 4 days by MTT assay; assay type: functional, organism-based; conditions: Human immunodeficiency virus 1, EFV, MT4, 96 h
[5] = system: Bovine viral diarrhea virus 1; test: Antiviral activity against Bovine viral diarrhea virus infected in MDBK cells assessed as protection against virus-induced cytopathogenicity after 2 to 3 days by MTT assay; assay type: functional, organism-based; conditions: Bovine viral diarrhea virus isolates and strains
Yellow fever virus = test: Antiviral activity against Yellow fever virus infected in BHK-21 cells assessed as protection against virus-induced cytopathogenicity after 2 to 3 days by MTT assay; assay type: functional, organism-based
Coxsackievirus B2 = test: Antiviral activity against Coxsackievirus B2 infected in african green monkey Vero cells assessed as reduction of virus plaque formation after 3 days; assay type: functional, organism-based; conditions: Enterovirus B, 72 h
Poliovirus 1 = test: Antiviral activity against Poliovirus Sb-1 infected in african green monkey Vero cells assessed as reduction of virus plaque formation after 3 days; assay type: functional, cell-based; conditions: Enterovirus C, Sabin, 72 h
[6] = system: Human immunodeficiency virus 1; test: Antiviral activity against HIV1 3B infected in human MT4 cells assessed as protection against virus-induced cytopathogenicity after 4 days by MTT assay; assay type: functional, organism-based; conditions: Human immunodeficiency virus 1, 3B, MT4, 96 h
[7] = system: Respiratory syncytial virus; test: Antiviral activity against Respiratory syncytial virus assessed as reduction of virus plaque formation by cell based assay; assay type: functional, organism-based; conditions: human respiratory syncytial virus
[8] = system: Vesicular stomatitis virus; test: Antiviral activity against Vesicular stomatitis virus assessed as reduction of virus plaque formation by cell based assay; assay type: functional, organism-based
[9] = system: Mammalian orthoreovirus 1; test: Antiviral activity against Reovirus 1 assessed as protection against virus-induced cytopathogenicity by cell based MTT assay; assay type: functional, organism-based
Vaccinia virus = test: Antiviral activity against Vaccinia virus assessed as reduction of virus plaque formation by cell based assay; assay type: functional, organism-based; conditions: Orthopoxvirus vaccinia
[10] = system: Human immunodeficiency virus; test: Inhibition of HIV reverse transcriptase RNA-dependent polymerase activity after 30 mins by fluorescent microplate assay

SMILES | CC50 at 96 h [1] [µM] | EC50 [2] [µM] | EC50 [3] [µM] | EC50 [4] [µM] | EC50 [5] [µM] | EC50 (Yellow fever virus) [µM] | EC50 (Coxsackievirus B2) [µM] | EC50 (Poliovirus 1) [µM] | EC50 [6] [µM] | EC50 [7] [µM] | EC50 [8] [µM] | EC50 [9] [µM] | EC50 (Vaccinia virus) [µM] | Activity [10]
Cc1ccnc2c1NC(=O)c1cccnc1N2C1CC1 [NEVIRAPINE] | > 100 | 7 | > 20 | > 20 |  |  |  |  |  |  |  |  |  | 
[O-][n+]1n[nH]c2c1Cc1cccnc1C2 | > 100 | 4 | 10 | 9 | > 100 | > 100 | > 100 | > 100 | 12 | > 100 | > 100 | > 100 | > 100 | Dose-dependent effect
O=C1Nc2ccc(Cl)cc2[C@@](C#CC2CC2)(C(F)(F)F)O1 [EFAVIRENZ] | 45 |  | 0.06 | 7 |  |  |  |  |  |  |  |  |  | 
CCOn1nnc2c1Cc1cccnc1C2 | > 100 | > 100 | > 100 | > 100 | > 100 | > 100 | > 100 | > 100 | > 100 | > 100 | > 100 | > 100 | > 100 | 
c1c2c(cc3[nH]nnc13)NCCC2 | > 100 | > 100 | > 100 | > 100 | > 100 | > 100 | > 100 | > 100 | > 100 | > 100 | > 100 | > 100 | > 100 | 
c1cnc2cc3[nH]nnc3cc2c1 | > 100 | > 100 | > 100 | > 100 | > 100 | > 100 | > 100 | > 100 | > 100 | > 100 | > 100 | > 100 | > 100 | 
c1cnc2c(c1)Cc1nn[nH]c1C2 | > 100 | > 100 | > 100 | > 100 | > 100 | > 100 | > 100 | > 100 | > 100 | > 100 | > 100 | > 100 | > 100 | 
[O-][n+]1n[nH]c2c(Cl)c3ncccc3cc21 | > 100 | > 100 | > 100 | > 100 | > 100 | > 100 | > 100 | > 100 | > 100 | > 100 | > 100 | > 100 | > 100 | 
